# Results reported in patent US10710980B2, “Aminopyridine derivatives and their use as selective ALK-2 inhibitors” (priority 2016, dated 2020).
# Where a name gives a salt, the structure may show the parent alone.
# Columns and labels:
# ALK1 (aa166-493) = ALK1 (aa166-493) (Homo sapiens (Human), UniProt P37023); test: Caliper biochemical peptide phosphorylation assay, ALK1; conditions: 15 μm ATP, 60 min at 30° C.; read-out: ALK1 EPK (IC50)
# [1] = target: T1, wild-type ALK2 (aa172-499) (Homo sapiens (Human), UniProt Q04771); test: Caliper biochemical peptide phosphorylation assay, ALK2; conditions: 15 μm ATP, 60 min at 30° C.; read-out: ALK2 EPK (IC50)
# T1 sequence (Q04771 172-499): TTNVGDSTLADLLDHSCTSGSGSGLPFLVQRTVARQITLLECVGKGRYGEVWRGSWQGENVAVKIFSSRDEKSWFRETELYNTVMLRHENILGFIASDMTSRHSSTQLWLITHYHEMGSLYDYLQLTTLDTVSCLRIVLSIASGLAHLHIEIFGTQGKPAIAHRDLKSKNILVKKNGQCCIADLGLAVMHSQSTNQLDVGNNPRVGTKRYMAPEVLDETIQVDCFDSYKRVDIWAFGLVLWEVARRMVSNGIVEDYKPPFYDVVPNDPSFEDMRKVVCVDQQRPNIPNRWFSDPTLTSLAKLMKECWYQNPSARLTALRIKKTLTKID
# ALK3 (aa198-525) = ALK3 (aa198-525) (Homo sapiens (Human), UniProt P36894); test: ADPGlo biochemical autophosphorylation assay, ALK3; conditions: 15 μm ATP, 60 min at 32° C.
# Chain of ALK3 (aa198-525) (P36894 198-525): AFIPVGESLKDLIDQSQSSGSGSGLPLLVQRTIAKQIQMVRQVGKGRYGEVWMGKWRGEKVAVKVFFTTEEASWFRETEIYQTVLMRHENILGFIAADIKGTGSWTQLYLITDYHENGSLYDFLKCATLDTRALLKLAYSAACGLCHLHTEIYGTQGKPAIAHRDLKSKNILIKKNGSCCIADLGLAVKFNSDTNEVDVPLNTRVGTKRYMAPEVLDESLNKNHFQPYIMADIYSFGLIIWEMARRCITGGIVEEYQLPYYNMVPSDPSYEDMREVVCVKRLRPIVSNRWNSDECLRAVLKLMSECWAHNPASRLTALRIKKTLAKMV
# ALK6 (aa168-495) = ALK6 (aa168-495) (Homo sapiens (Human), UniProt O00238); test: Caliper biochemical peptide phosphorylation assay, ALK6; conditions: 15 μm ATP, 60 min at 30° C.; read-out: ALK6 EPK (IC50)
# Chain of ALK6 (aa168-495) (O00238 168-495): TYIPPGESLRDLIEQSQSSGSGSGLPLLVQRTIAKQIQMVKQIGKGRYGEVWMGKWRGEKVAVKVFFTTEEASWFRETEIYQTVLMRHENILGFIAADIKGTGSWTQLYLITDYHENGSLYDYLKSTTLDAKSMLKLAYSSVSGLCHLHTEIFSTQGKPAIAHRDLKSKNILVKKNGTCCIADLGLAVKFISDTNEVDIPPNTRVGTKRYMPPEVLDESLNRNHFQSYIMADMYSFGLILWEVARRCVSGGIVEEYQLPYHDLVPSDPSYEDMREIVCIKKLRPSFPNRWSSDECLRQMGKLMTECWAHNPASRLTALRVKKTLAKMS
# [2] = target: T1, wild-type ALK2 (aa172-499); test: ADPGlo biochemical autophosphorylation assay, ALK2; conditions: 15 μm ATP, 60 min at 32° C.
# [3] = system: BMP response element (BRE) luciferase reporter in HuH7 cells, BMP6 stimulated; test: BMP signaling reporter gene assay; assay type: cell-based; conditions: Homo sapiens, Huh-7; HuH7 BRE-luciferase, BMP6 100 ng/ml, 5 hours; read-out: MSD BMP RGA IC50
# ALK5 (aa162-503) = ALK5 (aa162-503) (Homo sapiens (Human), UniProt P36897); test: Caliper biochemical peptide phosphorylation assay, ALK5; conditions: 15 μm ATP, 60 min at 30° C.; read-out: ALK5 EPK (IC50)
# Chain of ALK5 (aa162-503) (P36897 162-503): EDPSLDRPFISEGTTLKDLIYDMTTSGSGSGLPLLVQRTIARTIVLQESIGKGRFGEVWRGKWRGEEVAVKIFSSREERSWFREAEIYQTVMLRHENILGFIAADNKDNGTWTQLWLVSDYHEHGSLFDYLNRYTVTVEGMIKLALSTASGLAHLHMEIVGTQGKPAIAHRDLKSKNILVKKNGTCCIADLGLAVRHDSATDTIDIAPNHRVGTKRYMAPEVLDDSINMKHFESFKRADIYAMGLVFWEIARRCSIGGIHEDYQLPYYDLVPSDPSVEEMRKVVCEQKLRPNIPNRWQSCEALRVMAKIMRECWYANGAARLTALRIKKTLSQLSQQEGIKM
# [4] = Solubility (at 25° C., 24 h equilibration); assay type: physicochemical; conditions: for solubility at 24 h: 25 °C, thermodynamic from solid; for solubility at 24 h / solubility: target concentration 2 mg/mL; for solubility: 25° C., 24 h
# [5] = Dynamic Vapor Sorption, physical stability to humidity; assay type: physicochemical; conditions: for physical stability (DVS): 50%-0%-90% RH
# Chain of ALK1 (aa166-493) (P37023 166-493): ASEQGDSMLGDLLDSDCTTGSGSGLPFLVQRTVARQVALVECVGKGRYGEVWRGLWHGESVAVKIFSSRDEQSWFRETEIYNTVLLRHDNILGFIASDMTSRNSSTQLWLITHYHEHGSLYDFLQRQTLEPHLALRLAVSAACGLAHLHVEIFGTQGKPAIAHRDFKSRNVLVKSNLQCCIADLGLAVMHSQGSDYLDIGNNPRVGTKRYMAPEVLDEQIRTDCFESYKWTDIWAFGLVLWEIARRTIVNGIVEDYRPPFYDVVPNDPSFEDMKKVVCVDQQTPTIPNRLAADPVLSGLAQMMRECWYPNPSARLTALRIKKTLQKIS
IC50 (ALK1 (aa166-493)),IC50 [1],IC50 (ALK3 (aa198-525)),IC50 (ALK6 (aa168-495)),IC50 [2],IC50 [3],IC50 (ALK5 (aa162-503)),Structure (SMILES),further results
5.6 µM,0.145 µM,15.1 µM,10 µM,0.1 µM,0.36 µM,10 µM,"CC(C)(O)C12CC(NC(=O)c3cc(-c4ccc([C@@]56C[C@@H]5CN(C5CCOCC5)C6)cc4)cnc3N)(C1)C2 [Example 83, 2-amino-N-(3-(2-hydroxypropan-2-yl)bicyclo[1.1.1]pentan-1-yl)-5-(4-((1R,5S)-3-(tetrahydro-2H-pyran-4-yl)-3-azabicyclo[3.1.0]hexan-1-yl)phenyl)nicotinamide]",
20.2 µM,0.35 µM,21.9 µM,20.2 µM,2.4 µM,9.5 µM,20.2 µM,"Nc1ncc(-c2cccc(C(=O)N3CCOCC3)c2)cc1C(=O)NC1CCCCC1 [Example 84, 2-amino-N-cyclohexyl-5-(3-(morpholine-4-carbonyl)phenyl)nicotinamide]",
9.8 µM,0.17 µM,15.1 µM,10 µM,0.19 µM,0.86 µM,10 µM,"C[C@@H]1CCCN1Cc1ccc(-c2cnc(N)c(C(=O)N[C@H]3CC[C@](C)(O)CC3)c2)cc1Cl [Example 85, 2-amino-5-(3-chloro-4-(((R)-2-methylpyrrolidin-1-yl)methyl)phenyl)-N-((1r,4R)-4-hydroxy-4-methylcyclohexyl)nicotinamide]",
2.3 µM,0.205 µM,8.2 µM,10 µM,0.11 µM,1.08 µM,10 µM,"C[C@H](c1ccc(-c2cnc(N)c(C(=O)N[C@]3(C)CC[C@@H](O)CC3)c2)cc1)N1CC2(COC2)C1 [Example 86, 5-(4-((R)-1-(2-oxa-6-azaspiro[3.3]heptan-6-yl)ethyl)phenyl)-2-amino-N-((1r,4R)-4-hydroxy-1-methylcyclohexyl)nicotinamide]",
10 µM,0.63 µM,15.1 µM,10 µM,0.88 µM,3.55 µM,10 µM,"Cc1cc(CN2CCC[C@H]2C)ccc1-c1cnc(N)c(C(=O)N[C@H]2CC[C@](C)(O)CC2)c1 [Example 87, 2-amino-N-((1r,4R)-4-hydroxy-4-methylcyclohexyl)-5-(2-methyl-4-(((R)-2-methylpyrrolidin-1-yl)methyl)phenyl)nicotinamide]",
20.2 µM,0.81 µM,22.8 µM,20.2 µM,0.99 µM,9.3 µM,20.2 µM,"Nc1ncc(-c2cccc(C(=O)N3CCN(CCO)CC3)c2)cc1C(=O)NC1CCCCC1 [Example 88, 2-amino-N-cyclohexyl-5-(3-(4-(2-hydroxyethyl)piperazine-1-carbonyl)phenyl)nicotinamide]",
,,,,,,,"Nc1ncc(-c2ccc([C@@]34C[C@@H]3CN(C3CCOCC3)C4)cc2)cc1C(=O)NC12CCC(O)(CC1)CC2 [Free form Modification HA, 2-amino-N-(4-hydroxybicyclo[2.2.2]octan-1-yl)-5-(4-((1R,5S)-3-(tetrahydro-2H-pyran-4-yl)-3-azabicyclo[3.1.0]hexan-1-yl)phenyl)nicotinamide]","solubility at 24 h ([4]; 1N HCl, pH 1, simulated gastric fluid, pH 1.0 1N HCl/1.1, 24 h): > 2000 µg/mL; solubility at 24 h ([4]; FeSSIF, pH 5.8, fessif, pH 5.8 FeSSIF/5.9, 24 h): 1690 µg/mL; solubility at 24 h ([4]; HCl buffer, pH 2, simulated gastric fluid, pH 2.0 HCl buffer 2.1, 24 h): > 2000 µg/mL; solubility at 24 h ([4]; SGF, pH 2, simulated gastric fluid, pH 2.0 SGF/2.0, 24 h): > 2000 µg/mL; solubility ([4]; Water/7.2): 70 µg/mL; solubility at 24 h ([4]; acetate buffer, pH 4.7, aqueous buffer, pH 4.7 acetate buffer/4.8, 24 h): > 2000 µg/mL; solubility ([4]; pH 6.5 FaSSIF/6.5): 470 µg/mL; solubility ([4]; pH 6.8 phosphate buffer/6.8): 340 µg/mL; solubility ([4]; pH 9.0 borate buffer/8.6): <LOQ"
,,,,,,,"Nc1ncc(-c2ccc([C@@]34C[C@@H]3CN(C3CCOCC3)C4)cc2)cc1C(=O)NC12CCC(O)(CC1)CC2 [Fumarate salt Modification HA, 2-amino-N-(4-hydroxybicyclo[2.2.2]octan-1-yl)-5-(4-((1R,5S)-3-(tetrahydro-2H-pyran-4-yl)-3-azabicyclo[3.1.0]hexan-1-yl)phenyl)nicotinamide]","physical stability (DVS) ([5]; 25° C.): physically stable at least from 0% to 90% RH; physical stability (DVS) ([5]; 40° C.): physically stable at least from 10% to 90% RH; humidity range of stability compared with free form polymorphs ([5]; data not shown): stable over a wider humidity range than free form polymorphs; solubility ([4]; Water/7.2): >2000 µg/mL; solubility compared with free form Modification HA ([4]; aqueous buffers): better solubility than free form Modification HA in some aqueous buffers; solubility at 24 h ([4]; borate buffer, pH 9, aqueous buffer, pH 9.0 borate buffer/8.6, 24 h): 30 µg/mL; solubility ([4]; pH 1.0 1N HCl/1.1): >2000 µg/mL; solubility ([4]; pH 2.0 HCl buffer 2.1): >2000 µg/mL; solubility ([4]; pH 2.0 SGF/2.0): >2000 µg/mL; solubility ([4]; pH 4.7 acetate buffer/4.8): >2000 µg/mL; solubility ([4]; pH 5.8 FeSSIF/5.9): >2000 µg/mL; solubility ([4]; pH 6.5 FaSSIF/6.5): 1690 µg/mL; solubility ([4]; pH 6.8 phosphate buffer/6.8): 1080 µg/mL"
